Measurements as given in BindingDB's records for doi:10.1021/jm0503244 (Merck Research Laboratories, 2005).

How the values were obtained:
Assay in all cases: S1P Receptor Binding Assay
[1] = molecular target: Sphingosine 1-phosphate receptor 5 (Homo sapiens, UniProt Q9H228); details: 25 °C
Method: (§1) The assay measures the displacement of [33P]-labeled sphingosine-1-phosphate (S1P) by test compounds from human S1P receptors expressed on CHO cell membranes. Binding was performed for 60 min at room temperature and terminated by collecting the membranes onto GF/B filter plates with a Packard Filtermate Universal Harvester. Filter bound radionuclide was measured on a PerkinElmer 1450 MicroBeta. Specific binding was calculated by subtracting radioactivity that remained in the presence of 1000-fold excess of unlabeled S1P.

[2] = molecular target: T1, Sphingosine 1-phosphate receptor 4 (Homo sapiens, UniProt O95977); details: 25 °C
T1 sequence (O95977 whole entry): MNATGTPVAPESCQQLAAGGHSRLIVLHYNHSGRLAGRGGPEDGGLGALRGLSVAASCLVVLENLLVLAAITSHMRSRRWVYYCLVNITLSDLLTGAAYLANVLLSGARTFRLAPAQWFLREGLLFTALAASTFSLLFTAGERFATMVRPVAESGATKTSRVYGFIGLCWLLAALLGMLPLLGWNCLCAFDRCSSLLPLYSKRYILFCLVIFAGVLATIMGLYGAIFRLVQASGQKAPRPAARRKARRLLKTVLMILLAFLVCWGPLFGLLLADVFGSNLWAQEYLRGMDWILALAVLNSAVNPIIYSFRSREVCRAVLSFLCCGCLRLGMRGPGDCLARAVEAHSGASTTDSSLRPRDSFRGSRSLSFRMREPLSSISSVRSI
Method: as §1

[3] = molecular target: Sphingosine 1-phosphate receptor 3 (Homo sapiens, UniProt Q99500); details: pH 7.5; 22 °C
Sequence of Sphingosine 1-phosphate receptor 3 (Q99500 whole entry): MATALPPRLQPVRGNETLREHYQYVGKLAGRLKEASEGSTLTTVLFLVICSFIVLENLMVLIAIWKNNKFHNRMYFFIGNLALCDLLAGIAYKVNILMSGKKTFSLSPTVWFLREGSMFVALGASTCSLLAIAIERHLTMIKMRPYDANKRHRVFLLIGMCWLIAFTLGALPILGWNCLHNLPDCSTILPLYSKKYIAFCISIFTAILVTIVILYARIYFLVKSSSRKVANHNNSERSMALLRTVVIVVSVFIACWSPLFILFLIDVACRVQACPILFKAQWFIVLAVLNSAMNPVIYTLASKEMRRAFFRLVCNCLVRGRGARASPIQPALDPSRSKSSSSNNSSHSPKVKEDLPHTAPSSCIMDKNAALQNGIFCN
Method: as §1

Sequence of Sphingosine 1-phosphate receptor 5 (Q9H228 whole entry): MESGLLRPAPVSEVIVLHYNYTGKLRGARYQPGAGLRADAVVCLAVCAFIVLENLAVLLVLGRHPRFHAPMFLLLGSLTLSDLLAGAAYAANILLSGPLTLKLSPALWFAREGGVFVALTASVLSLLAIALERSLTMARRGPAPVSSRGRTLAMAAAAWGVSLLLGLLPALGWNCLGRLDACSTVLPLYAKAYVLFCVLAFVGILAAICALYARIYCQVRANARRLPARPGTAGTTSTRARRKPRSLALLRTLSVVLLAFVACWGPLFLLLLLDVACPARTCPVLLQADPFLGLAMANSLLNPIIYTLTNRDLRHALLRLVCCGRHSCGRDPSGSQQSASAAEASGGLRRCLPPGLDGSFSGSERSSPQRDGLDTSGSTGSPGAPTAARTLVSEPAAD

SMILES	IC50 [1] [µM]	IC50 [2] [µM]	IC50 [3] [µM]
CCCCc1ccc(-c2nc(-c3ccc(CN4CC(C(=O)O)C4)cc3)no2)cc1 [1-({4-[5-(4-butylphenyl)-1,2,4-oxadiazol-3-yl]phenyl}methyl)azetidine-3-carboxylic acid]	0.0024	0.35	
CC(C)(C)Cc1ccc(-c2nc(-c3ccc(CN4CC(C(=O)O)C4)cc3)no2)cc1 [1-[(4-{5-[4-(2,2-dimethylpropyl)phenyl]-1,2,4-oxadiazol-3-yl}phenyl)methyl]azetidine-3-carboxylic acid]			10
CCC(C)(C)c1ccc(-c2nc(-c3ccc(CN4CC(C(=O)O)C4)cc3)no2)cc1 [1-[(4-{5-[4-(2-methylbutan-2-yl)phenyl]-1,2,4-oxadiazol-3-yl}phenyl)methyl]azetidine-3-carboxylic acid]			3.09
